Key:
[1] = target: T1, human recombinant CHRM3 receptor (Homo sapiens, UniProt P20309); test: Radioligand binding assay, CHRM3; conditions: [3H]4-DAMP (0.2 nM), CHO cell membranes, 60 minutes at room temperature; read-out: Ki M3
T1 construct: expressed in transfected cells; host or cells: CHO cells (membranes)
Experimental: (§1) PD102807 and Compounds A-K at concentrations of 1×10^−9 M, 1×10^−8 M, 1×10^−7 M, 1×10^−6 M, and 1×10^−5 M were tested in standard binding assays with radioligands and cell membranes with receptors. Compound binding was calculated as a percent inhibition of the binding of a radioactively labeled ligand specific for each target, and the Ki values were determined. For CHRM1, the binding assay was performed using [^3H]pirenzepine (2 nM) as a radioligand and membranes of CHO cells with human recombinant CHRM1 receptor. The incubation time was 60 minutes at room temperature. For CHRM2, the binding assay was performed using [^3H]AF-DX 384 (2 nM) as a radioligand and membranes of CHO cells with human recombinant CHRM2 receptor. The incubation time was also 60 minutes at room temperature. For CHRM3, the binding assay was performed using [^3H]4-DAMP (0.2 nM) as a radioligand and membranes of CHO cells with human recombinant CHRM3 receptor. The incubation time was also 60 minutes at room temperature. For CHRM4, the binding assay was performed using [^3H]4-DAMP (0.2 nM) as a radioligand and membranes of CHO cells with human recombinant CHRM4 receptor. The incubation time was also 60 minutes at room temperature. For CHRM5, the binding assay was performed using [^3H]4-DAMP (0.3 nM) as a radioligand and membranes of CHO cells with human recombinant CHRM5 receptor. The incubation time was also 60 minutes at room temperature.

[2] = target: T2, human recombinant CHRM1 receptor (Homo sapiens, UniProt P11229); test: Radioligand binding assay, CHRM1; conditions: [3H]pirenzepine (2 nM), CHO cell membranes, 60 minutes at room temperature; read-out: Ki M1
T2 construct: expressed in transfected cells; host or cells: CHO cells (membranes)
T2 sequence (P11229 1-460): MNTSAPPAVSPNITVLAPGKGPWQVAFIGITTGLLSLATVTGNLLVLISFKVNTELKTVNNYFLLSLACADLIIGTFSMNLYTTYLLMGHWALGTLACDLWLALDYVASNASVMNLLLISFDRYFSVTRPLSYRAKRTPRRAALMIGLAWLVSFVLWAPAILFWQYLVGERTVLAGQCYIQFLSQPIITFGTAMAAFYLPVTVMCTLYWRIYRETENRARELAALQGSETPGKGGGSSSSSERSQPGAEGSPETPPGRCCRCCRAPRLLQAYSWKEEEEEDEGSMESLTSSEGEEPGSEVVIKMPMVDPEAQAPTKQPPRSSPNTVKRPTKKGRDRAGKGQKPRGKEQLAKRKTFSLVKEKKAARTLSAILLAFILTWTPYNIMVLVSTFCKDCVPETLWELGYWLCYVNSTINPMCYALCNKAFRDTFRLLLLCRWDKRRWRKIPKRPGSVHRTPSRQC
Experimental: as §1

[3] = target: T3, human recombinant CHRM2 receptor (Homo sapiens, UniProt P08172); test: Radioligand binding assay, CHRM2; conditions: [3H]AF-DX 384 (2 nM), CHO cell membranes, 60 minutes at room temperature; read-out: Ki M2
T3 construct: expressed in transfected cells; host or cells: CHO cells (membranes)
T3 sequence (P08172 1-466): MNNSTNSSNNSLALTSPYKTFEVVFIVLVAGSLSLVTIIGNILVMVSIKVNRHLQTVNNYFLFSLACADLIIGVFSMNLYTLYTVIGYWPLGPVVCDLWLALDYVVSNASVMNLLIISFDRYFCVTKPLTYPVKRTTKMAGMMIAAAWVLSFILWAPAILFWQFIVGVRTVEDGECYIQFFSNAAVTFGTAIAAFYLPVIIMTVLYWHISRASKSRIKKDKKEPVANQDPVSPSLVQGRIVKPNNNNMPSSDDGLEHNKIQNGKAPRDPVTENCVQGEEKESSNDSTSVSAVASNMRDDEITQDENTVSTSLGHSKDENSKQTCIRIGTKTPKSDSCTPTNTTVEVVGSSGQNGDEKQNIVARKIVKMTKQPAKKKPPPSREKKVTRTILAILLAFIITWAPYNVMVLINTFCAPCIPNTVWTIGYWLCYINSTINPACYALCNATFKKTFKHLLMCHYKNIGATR
Experimental: as §1

[4] = Pharmacokinetic profile (plasma) and brain penetration assay; assay type: in vivo, mouse; conditions: mice, intraperitoneal injection, plasma and brain by LC-MS/MS
Experimental: PD102807 and Compounds A and B were intraperitoneally injected into mice. Blood was collected at each time point, and transferred tubes containing anticoagulant were centrifuged to obtain plasma. Brain samples were collected each time point and then quick frozen in liquid nitrogen and kept at −75±15° C. Brain samples were homogenized. Concentrations of PD102807 and Compound A and B in the plasma and brain samples were analyzed using the LC-MS/MS method. […] Compound G was intraperitoneally injected into mice. Blood was collected at each time point, and transferred tubes containing anticoagulant were centrifuged to obtain plasma. Brain samples were collected each time point and then quick frozen in liquid nitrogen and kept at −75±15° C. Brain samples were homogenized. Concentrations of Compound G in the plasma and brain samples were analyzed using the LC-MS/MS method.

CHRM4 = target: T4, CHRM4 (Homo sapiens, UniProt P08173); test: Radioligand binding assay, CHRM4; parameters: expressed in transfected cells; host or cells: CHO cells (membranes); conditions: [3H]4-DAMP (0.2 nM), CHO cell membranes, 60 minutes at room temperature; read-out: Ki M4
T4 sequence (P08173 1-479): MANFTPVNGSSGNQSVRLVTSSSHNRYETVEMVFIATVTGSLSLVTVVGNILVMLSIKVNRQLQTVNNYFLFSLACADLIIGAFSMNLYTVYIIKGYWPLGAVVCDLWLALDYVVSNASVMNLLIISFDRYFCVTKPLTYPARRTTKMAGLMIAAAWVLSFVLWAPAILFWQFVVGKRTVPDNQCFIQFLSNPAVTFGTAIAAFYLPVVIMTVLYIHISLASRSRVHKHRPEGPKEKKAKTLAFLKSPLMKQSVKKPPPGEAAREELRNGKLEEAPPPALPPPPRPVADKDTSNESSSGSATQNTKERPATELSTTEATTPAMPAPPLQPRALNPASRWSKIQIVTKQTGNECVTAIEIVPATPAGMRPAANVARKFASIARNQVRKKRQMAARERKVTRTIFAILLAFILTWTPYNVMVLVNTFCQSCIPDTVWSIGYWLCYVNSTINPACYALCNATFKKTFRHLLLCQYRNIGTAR
Experimental: as §1

Mouse BFU-Es [5] = test: Primary mouse BFU-E culture assay (cell expansion); assay type: cell-based
Experimental: (§2) Primary mouse BFU-Es were isolated from mouse embryonic day 14.5 (E14.5) fetal liver and cultured in StemSpan serum-free expansion medium, and the numbers of cells formed were counted during culture. BFU-Es were infected with either viruses encoding control shRNA or viruses encoding shRNAs targeting Chrm4, and numbers of GFP+ cells formed during culture were counted. DMSO or 25 mg/kg oxyphenonium bromide was intraperitoneally injected into the hemolysis mouse model, Mx1-cre Srsf2 P95H/WT MDS mouse model, and aging mouse model. Complete blood count (CBC) was performed after compound injection. CREB ChIP-Seq was performed on BFU-Es after culture with 100 μM oxyphenonium bromide for 45 minutes. RNA-Seq was performed in BFU-Es after being cultured with DMSO or oxyphenonium bromide for 3 days.
BFU-Es were isolated from mouse embryonic day 14.5 fetal liver using fluorescence-activated cell sorting (FACS) method previously described (Flygare et al., Blood 117, 3435-3444 (2011)). BFU-Es were cultured in StemSpan SFEM II medium containing rmSCF (100 ng/ml), EPO (2 U/ml), rmIGF-1 (40 ng/ml), dexamethasone (1 nmol/ml or 10 nmol/ml), oxyphenonium bromide ([…]), and orphenadrine citrate (1 μmol/ml).
BFU-Es were isolated from mouse embryonic day 14.5 fetal liver using fluorescence-activated cell sorting (FACS) method. BFU-Es were cultured in StemSpan SFEM II medium containing rmSCF (100 ng/ml), EPO (2 U/ml), rmIGF-1 (40 ng/ml), dexamethasone (1 nM), together with either DMSO, PCS1055 (5 nM), or PD102807 (3 nM). Numbers of cell formed were counted during in vitro culture.
FIGS. 7 and 8 show the results of the primary BFU-E culture assay. […] Highly purified BFU-Es were isolated as lin-Ter-119-CD16/CD32-Sca-1-CD41-c-Kit+CD71/Cd24a^10% low population using the fluorescence-activated cell sorting (FACS) method. BFU-Es were cultured in medium containing rmSCF, EPO, and rmIGF-1, in the presence of PD102807 or Compounds A-K at indicated concentrations.

Mouse BFU-Es [6] = test: BFU-E colony formation assay; assay type: cell-based; conditions: Day 6 cultured BFU-Es plated on methylcellulose, colonies counted 9 days later
Mouse BFU-Es [7] = test: Ter119 antibody staining, flow cytometry; assay type: cell-based; conditions: with or without oxyphenonium bromide, after 12 days of culture
[8] = system: Human CD34+ hematopoietic stem and progenitor cells; test: Human CD34+ cell culture and counting; assay type: cell-based; conditions: human CD34+ HSPC culture, oxyphenonium bromide (200 μM)
Experimental: Human CD34+ hematopoietic stem and progenitor cells (HSPCs) were cultured in StemSpan™ SFEM medium containing rhSCF (20 ng/ml), rhIL-3 (5 ng/ml) and EPO (1 U/ml) with various concentrations of dexamethasone and oxyphenonium. Total numbers of cells were counted using a flow-cytometer. For colony formation assay, day 8 cultured cells were plated into methylcellulose medium MethoCult™ H4034 Optimum and BFU-E colonies were counted after 13 days.

[9] = system: phosphorylated CREB in BFU-Es; test: Phospho-CREB immunofluorescence; assay type: cell-based, mouse; conditions: 100 μM oxyphenonium, 45 to 60 min
Experimental: Freshly isolated BFU-Es were serum starved for 1 hour and treated with either DMSO or 100 μM oxyphenonium for 45 to 60 min. 10^4 cells were collected on Poly L-Lysine coated slides using cytospin. Cells were fixed with 2% paraformaldehyde for 15 min, followed with permeabilization using 0.1% Triton X-100 for 15 min and with 2% BSA solution block for 30 min. Cells were incubated with phospho-CREB antibody (phospho […], Abeam, ab32096, 1:250) in 2% BSA for 1 hour and then incubated with FITC conjugated goat anti-mouse secondary antibody (Abcam, ab97022, 1:500) and FITC conjugated goat anti-rabbit secondary antibody (Abcam, ab97050, 1:500) in 2% BSA solution for 30 min. Cells were then incubated with DAPI for 5 min and then mounted with mounting solution.

[10] = system: hemolysis, MDS, and aging mouse models; test: Hemolysis, MDS and aging anemia mouse models (oxyphenonium bromide); assay type: in vivo; conditions: 25 mg/kg intraperitoneally
Experimental: as §2
4-6 weeks old C57bl/6 mice were intraperitoneally injected with either control DMSO or compound every day for 3 days. On day 4, mice were intraperitoneally injected with 60 mg/kg PHZ. Mice were then intraperitoneally injected with either compound or control DMSO every day for another 3 days. Peripheral blood samples were collected retro-orbitally using heparinized capillary tubes in blood collection tubes with K2-EDTA. CBC was performed using Hemavet® 950. […]

T1 sequence (P20309 whole entry): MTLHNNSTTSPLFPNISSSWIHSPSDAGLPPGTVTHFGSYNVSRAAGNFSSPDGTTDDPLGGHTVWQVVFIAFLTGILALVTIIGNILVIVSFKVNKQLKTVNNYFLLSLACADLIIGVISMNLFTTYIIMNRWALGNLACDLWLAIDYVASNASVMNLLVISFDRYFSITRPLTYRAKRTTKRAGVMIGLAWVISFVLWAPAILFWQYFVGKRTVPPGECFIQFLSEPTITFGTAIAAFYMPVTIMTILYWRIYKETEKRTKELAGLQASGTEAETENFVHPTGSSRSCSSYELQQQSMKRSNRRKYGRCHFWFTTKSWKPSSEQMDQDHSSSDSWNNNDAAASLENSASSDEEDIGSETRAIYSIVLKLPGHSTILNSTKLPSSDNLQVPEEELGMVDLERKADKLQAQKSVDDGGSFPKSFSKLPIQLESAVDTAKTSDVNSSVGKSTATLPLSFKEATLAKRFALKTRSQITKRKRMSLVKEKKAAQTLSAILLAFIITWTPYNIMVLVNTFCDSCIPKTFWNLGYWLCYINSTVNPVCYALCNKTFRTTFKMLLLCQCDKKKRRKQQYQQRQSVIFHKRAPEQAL

SMILES	Ki [1] [nM]	Ki [2] [nM]	Ki [3] [nM]	brain penetration in comparison to PD102807 [4]	Ki (CHRM4) [nM]	production of more erythrocytes from BFU-E (Mouse BFU-Es [5]; 100 μM oxyphenonium bromide, vs culture without compound) [fold]	BFU-E expansion (test of GPCR agonists and antagonists) (Mouse BFU-Es [5]; mouse BFU-E culture)	formation of BFU-E colonies (Mouse BFU-Es [6]) [fold]	percentage of Ter119+ differentiated cells (Mouse BFU-Es [7])	expansion of erythroid cells [8] [fold]	nuclear localization of phosphorylated CREB [9]	correction of anemia in vivo [10]
CCOC(=O)c1c(C)n(C)c2ccc(OC)c(C[N+]3(C)CCc4cc(OC)ccc4C3)c12.[I-] (stereo not drawn) [Compound G, 2-((3-(ethoxycarbonyl)-5-methoxy-1,2-dimethyl-1H-indol-4-yl)methyl)-6-methoxy-2-methyl-1,2,3,4-tetrahydroisoquinolin-2-ium Iodide]	400	4400	760	reduced brain penetration	1500							
CC[N+](C)(CC)CCOC(=O)C(O)(c1ccccc1)C1CCCCC1 (stereo not drawn) [oxyphenonium bromide]						~10	triggered BFU-E expansion	~2	no difference	2 to 4	increase in nuclear localization	corrects anemia in vivo

From US12497411B2, “Muscarinic acetylcholine receptor subtype 4 antagonists in the treatment of anemia” (COLD SPRING HARBOR LABORATORY, priority 2019, dated 2025)
